{"source": "patent US5696151A", "about": "“Compounds useful for the inhibition of the replication of HIV-1 and HIV-1 mutants” (priority 1995, dated 1997)", "key": {"HIV-1/188-Leu": {"test_system": "HIV-1/188-Leu", "experiment": "Inhibition of HIV-1 induced syncytium formation in CEM cells, RT mutant 188-Leu", "type": "cell-based", "details": "Human immunodeficiency virus 1, CCRF-CEM, 96 h, day 4, averages of 2 to 3 independent experiments", "excerpt": "(§1) CEM cells were obtained from the American Tissue Cell Culture Collection (Rockville, Md.). HIV-1(IIIB) was originally obtained from the culture supernatant of persistently HIV-1-infected H9 cells and was provided by R. C. Gallo and M. Popovic (National Cancer Institute, National Institutes of Health, Bethesda, Md.). […] 67: 5353-5359 (1993); HIV-1/Lys-138 (\"Lys-138\") was selected for resistance against TSAO-m^3T as described in Balzarini et al, Virology 192: 246-253 (1993) and Balzarini et al, Proc. Nat. Acad. Sci. USA 90: 6952-6956 (1993); HIV-1/181-Cys (\"181-Cys\") was selected for resistance against pyridinone L-697,661 as described in Balzarini et al, Virology 192: 246-253 (1993); and HIV-1/188-His (\"188-His\") was selected for resistance against HEPT as described in Balzarini et al, Mol. Pharmocol. 44: 694-701 (1993). 188-His was then further converted to HIV-1/188-Leu \"188-Leu\") upon further passage in cell culture in the absence of the HEPT.\n(§2) CEM cells were suspended at ≈300,000 cells per ml of culture medium and infected with approximately 100 CCID50 (CCID50 being the 50% cell culture infective dose) of HIV-1(IIIB) or one of the HIV-1 RT mutant strains described above. Then 100 μl of the infected cell suspensions was added to 200 μl microtiter plate wells containing 100 μl of appropriate serial (5-fold) dilutions of the test compounds. The inhibitory effect of the test compounds on HIV-1 induced syncytium formation in CEM cells was examined microscopically on day 4 post infection."}, "HIV-1(IIIB)": {"test_system": "HIV-1(IIIB)", "experiment": "Inhibition of HIV-1 induced syncytium formation in CEM cells, wild type", "type": "cell-based", "details": "WT = HIV-1(IIIB), day 4, averages of 2 to 3 independent experiments; for EC50: Human immunodeficiency virus 1, IIIB, CCRF-CEM, 96 h, Table 2A, read-out: Antiviral Activity EC50, WT", "outline": "(§3)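 Mutant strains were selected in culture for resistance to NNRTIs such as TSAO-m^3T, pyridinone L-697,661 or HEPT. Antiviral effect is inhibition of syncytium formation in infected CEM cells (~100 CCID50), assessed microscopically at day 4.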"}, "HIV-1/106-Ala": {"test_system": "HIV-1/106-Ala", "experiment": "Inhibition of HIV-1 induced syncytium formation in CEM cells, RT mutant 106-Ala", "type": "cell-based", "details": "day 4, averages of 2 to 3 independent experiments; for EC50: Human immunodeficiency virus 1, CCRF-CEM, 96 h, Table 2A, read-out: Antiviral Activity EC50, 106-Ala", "outline": "as §3"}, "HIV-1/Lys-138": {"test_system": "HIV-1/Lys-138", "experiment": "Inhibition of HIV-1 induced syncytium formation in CEM cells, RT mutant 138-Lys", "type": "cell-based", "details": "day 4, averages of 2 to 3 independent experiments; for EC50: Human immunodeficiency virus 1, CCRF-CEM, 96 h, Table 2A, read-out: Antiviral Activity EC50, 138-Lys", "outline": "as §3"}, "HIV-1/100-Ile": {"test_system": "HIV-1/100-Ile", "experiment": "Inhibition of HIV-1 induced syncytium formation in CEM cells, RT mutant 100-Ile", "type": "cell-based", "details": "day 4, averages of 2 to 3 independent experiments; for EC50: Human immunodeficiency virus 1, CCRF-CEM, 96 h, Table 2A, read-out: Antiviral Activity EC50, 100-Ile", "outline": "as §3"}, "HIV-1/181-Cys": {"test_system": "HIV-1/181-Cys", "experiment": "Inhibition of HIV-1 induced syncytium formation in CEM cells, RT mutant 181-Cys", "type": "cell-based", "details": "day 4, averages of 2 to 3 independent experiments; for EC50: Human immunodeficiency virus 1, CCRF-CEM, 96 h, Table 2A, read-out: Antiviral Activity EC50, 181-Cys", "outline": "as §3"}, "HIV-1/103-Asn": {"test_system": "HIV-1/103-Asn", "experiment": "Inhibition of HIV-1 induced syncytium formation in CEM cells, RT mutant 103-Asn", "type": "cell-based", "details": "Human immunodeficiency virus 1, CCRF-CEM, 96 h, day 4, averages of 2 to 3 independent experiments", "excerpt": "as §1, §2"}, "CEM cells": {"test_system": "CEM cells", "experiment": "in vitro", "type": "cell-based", "details": "Table 2B; CEM cell proliferation; averages of 2 to 3 independent experiments", "outline": "(§4)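 In CEM cells, the cytostatic value is the compound concentration giving 50% inhibition of cell proliferation. Parallel work used HIV-1(IIIB) and culture-selected resistant strains Lys-138, 181-Cys, 188-His and 188-Leu.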"}, "HIV-1 RT mutant strains": {"test_system": "HIV-1 RT mutant strains", "experiment": "Antiviral activity in CEM cells against the HIV-1 RT mutant strains", "type": "cell-based", "details": "Human immunodeficiency virus 1, CCRF-CEM, read-out: EC50 values against the HIV-1 RT mutant strains", "excerpt": "as §1\nas §2, with “The inhibitory effect of the test compounds on HIV-1 induced syncytium formation in CEM cells was examined microscopically on day 4 post infection.” left out"}, "[1]": {"test_system": "HIV-1(IIIB) and the HIV-1 RT mutants", "experiment": "Antiviral activity in CEM cells against wild type and RT mutants", "type": "cell-based", "excerpt": "as §1\nas §2, with “The inhibitory effect of the test compounds on HIV-1 induced syncytium formation in CEM cells was examined microscopically on day 4 post infection.” left out"}, "in vitro": {"experiment": "in vitro", "type": "cell-based", "details": "human, cem cells, CC50 (50% cytostatic concentration), Table 2A; CEM cell proliferation; averages of 2 to 3 independent experiments", "outline": "as §4"}, "[2]": {"test_system": "HIV-1 strains containing the 100 Leu →Ile mutation in their RT", "details": "background, Balzarini I and II; cited from earlier work"}, "[3]": {"test_system": "181 Tyr →Cys mutation in the RT of HIV-1 strains", "details": "background, Balzarini I and II; cited from earlier work"}, "[4]": {"details": "Table 2A, read-out: Antiviral Activity EC50, 188-Leu"}, "[5]": {"details": "Table 2A, read-out: Antiviral Activity EC50, 103-Asn"}}, "note": "Where two headings read alike, the source gives them in different places.", "data": [{"smiles": "Cc1sccc1C(=S)Nc1ccc(Cl)c(C(=O)OC2CCCCC2)c1", "note": "[Compound 9]", "values": [{"measurement": "EC50", "setting": "HIV-1/188-Leu; Table 2B, read-out: Antiviral Activity of Comparative Compounds EC50, 188-Leu", "value": "≥ 2000", "unit": "ng/mL"}, {"measurement": "Antiviral Activity of Comparative Compounds EC50, WT", "setting": "HIV-1(IIIB); Table 2B", "value": 3.2, "unit": "ng/mL"}, {"measurement": "Antiviral Activity of Comparative Compounds EC50, 106-Ala", "setting": "HIV-1/106-Ala; Table 2B", "value": 30, "unit": "ng/mL"}, {"measurement": "Antiviral Activity of Comparative Compounds EC50, 138-Lys", "setting": "HIV-1/Lys-138; Table 2B", "value": 20, "unit": "ng/mL"}, {"measurement": "Antiviral Activity of Comparative Compounds EC50, 100-Ile", "setting": "HIV-1/100-Ile; Table 2B", "value": 57, "unit": "ng/mL"}, {"measurement": "Antiviral Activity of Comparative Compounds EC50, 181-Cys", "setting": "HIV-1/181-Cys; Table 2B", "value": 32, "unit": "ng/mL"}, {"measurement": "EC50", "setting": "HIV-1/103-Asn; Table 2B, read-out: Antiviral Activity of Comparative Compounds EC50, 103-Asn", "value": 130, "unit": "ng/mL"}, {"measurement": "CC50 (50% cytostatic concentration)", "setting": "CEM cells", "value": 6000, "unit": "ng/mL"}]}, {"smiles": "CC(C)=CCOc1cc(NC(=S)c2ccoc2C)ccc1Cl", "note": "[Compound IA, N-[4-chloro-3-(3-methyl-2-butenyloxy)phenyl]-2-methyl-3-furancarbothioamide]", "values": [{"measurement": "EC50", "setting": "HIV-1/188-Leu; [4]", "value": 500, "unit": "ng/mL"}, {"measurement": "EC50", "setting": "HIV-1(IIIB)", "value": 3, "unit": "ng/mL"}, {"measurement": "EC50", "setting": "HIV-1/106-Ala", "value": 5, "unit": "ng/mL"}, {"measurement": "EC50", "setting": "HIV-1/Lys-138", "value": 5, "unit": "ng/mL"}, {"measurement": "EC50", "setting": "HIV-1 RT mutant strains", "value": "3 to 11", "unit": "ng/mL"}, {"measurement": "EC50", "setting": "HIV-1/100-Ile", "value": 3, "unit": "ng/mL"}, {"measurement": "EC50", "setting": "HIV-1/181-Cys", "value": 11, "unit": "ng/mL"}, {"measurement": "EC50", "setting": "HIV-1/103-Asn; [5]", "value": 6, "unit": "ng/mL"}, {"measurement": "EC50 values against HIV-1(IIIB) and the HIV-1 RT mutants (in words)", "setting": "[1]", "value": "extremely low, and virtually similar EC50 values"}, {"measurement": "CC50", "setting": "in vitro", "value": "> 100000", "unit": "ng/mL"}]}, {"smiles": "CC(C)=CCOc1cc(NC(=S)c2ccsc2C)ccc1Cl", "note": "[Compound IB, N-[4-chloro-3-(3-methyl-2-butenyloxy)-phenyl]-2-methyl-3thiophenecarbothioamide]", "values": [{"measurement": "EC50", "setting": "HIV-1/188-Leu; [4]", "value": 600, "unit": "ng/mL"}, {"measurement": "EC50", "setting": "HIV-1(IIIB)", "value": 3, "unit": "ng/mL"}, {"measurement": "EC50", "setting": "HIV-1/106-Ala", "value": 5, "unit": "ng/mL"}, {"measurement": "EC50", "setting": "HIV-1/Lys-138", "value": 5, "unit": "ng/mL"}, {"measurement": "EC50", "setting": "HIV-1 RT mutant strains", "value": "3 to 11", "unit": "ng/mL"}, {"measurement": "EC50", "setting": "HIV-1/100-Ile", "value": 4, "unit": "ng/mL"}, {"measurement": "EC50", "setting": "HIV-1/181-Cys", "value": 5, "unit": "ng/mL"}, {"measurement": "EC50", "setting": "HIV-1/103-Asn; [5]", "value": 4, "unit": "ng/mL"}, {"measurement": "EC50 values against HIV-1(IIIB) and the HIV-1 RT mutants (in words)", "setting": "[1]", "value": "extremely low, and virtually similar EC50 values"}, {"measurement": "CC50", "setting": "in vitro", "value": 5800, "unit": "ng/mL"}]}, {"smiles": "CC(C)=CCN1Cc2cccc3[nH]c(=S)n(c23)C[C@@H]1C", "note": "[Compound R82150]", "values": [{"measurement": "resistance of 100 Leu →Ile RT mutant strains", "setting": "[2]", "value": "resistant"}]}, {"smiles": "CC(C)=CCN1Cc2cc(Cl)cc3[nH]c(=S)n(c23)C[C@@H]1C", "note": "[TIBO R82913]", "values": [{"measurement": "resistance of 100 Leu →Ile RT mutant strains", "setting": "[2]", "value": "resistant"}]}, {"smiles": "Cc1ccnc2c1NC(=O)c1cccnc1N2C1CC1", "note": "[nevirapine]", "values": [{"measurement": "resistance of 181 Tyr →Cys RT mutant viruses", "setting": "[3]", "value": "resistant"}]}]}
